Data published in ChEMBL document CHEMBL4507305, “Data for DCP probe TP-024” (2021).

Legend:
[1] = molecular target: Serine/threonine-protein kinase PLK1 (Homo sapiens) (UniProt P53350); details: Compound concentration 1000.0 nM
[2] = molecular target: GABA-A receptor; anion channel (Rattus norvegicus) (UniProt O09028+P15431+P18506+P18508+P19969+P20236+P23574+P23576+P28471+P28473+P30191+P62813+P63079+P63138+Q91ZM7+Q9ES14); details: Compound concentration 10.0 uM
[3] = molecular target: Dual serine/threonine and tyrosine protein kinase (Homo sapiens) (UniProt Q6XUX3); details: Compound concentration 1000.0 nM
[4] = molecular target: Serine/threonine-protein kinase Nek2 (Homo sapiens) (UniProt P51955); details: Compound concentration 1000.0 nM
[5] = molecular target: Serine/threonine-protein kinase 33 (Homo sapiens) (UniProt Q9BYT3); details: Compound concentration 1000.0 nM
Serine/threonine-protein kinase 33 (Homo sapiens), sequence (Q9BYT3 whole entry, looked up, canonical isoform): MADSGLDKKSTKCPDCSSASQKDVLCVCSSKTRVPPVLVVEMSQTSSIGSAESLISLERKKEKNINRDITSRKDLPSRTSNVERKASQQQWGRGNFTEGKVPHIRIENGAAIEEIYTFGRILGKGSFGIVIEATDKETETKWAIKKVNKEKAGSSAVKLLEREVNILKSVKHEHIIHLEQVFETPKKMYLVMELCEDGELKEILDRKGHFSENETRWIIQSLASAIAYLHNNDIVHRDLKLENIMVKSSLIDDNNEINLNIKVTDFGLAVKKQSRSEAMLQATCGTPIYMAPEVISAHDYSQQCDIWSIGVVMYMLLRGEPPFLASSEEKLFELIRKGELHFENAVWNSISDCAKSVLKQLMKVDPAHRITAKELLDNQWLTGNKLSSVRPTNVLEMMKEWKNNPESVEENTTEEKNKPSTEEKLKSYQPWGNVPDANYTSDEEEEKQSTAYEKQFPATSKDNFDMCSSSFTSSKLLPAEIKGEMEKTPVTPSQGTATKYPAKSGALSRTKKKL

[6] = molecular target: Casein kinase I isoform gamma-2 (Homo sapiens) (UniProt P78368); details: Compound concentration 1000.0 nM
[7] = molecular target: Protein kinase C epsilon type (Homo sapiens) (UniProt Q02156); details: Compound concentration 1000.0 nM
[8] = molecular target: Myosin-IIIa (Homo sapiens) (UniProt Q8NEV4); details: Compound concentration 1000.0 nM
[9] = molecular target: Cyclin-dependent kinase 19 (Homo sapiens) (UniProt Q9BWU1); details: Compound concentration 1000.0 nM
[10] = molecular target: MAP/microtubule affinity-regulating kinase 4 (Homo sapiens) (UniProt Q96L34); details: Compound concentration 1000.0 nM
[11] = molecular target: 5-hydroxytryptamine receptor 6 (Homo sapiens) (UniProt P50406); details: Compound concentration 10.0 uM
[12] = molecular target: MAP/microtubule affinity-regulating kinase 3 (Homo sapiens) (UniProt P27448); details: Compound concentration 1000.0 nM
[13] = molecular target: Inhibitor of nuclear factor kappa-B kinase subunit beta (Homo sapiens) (UniProt O14920); details: Compound concentration 1000.0 nM
Inhibitor of nuclear factor kappa-B kinase subunit beta (Homo sapiens), sequence (O14920 whole entry): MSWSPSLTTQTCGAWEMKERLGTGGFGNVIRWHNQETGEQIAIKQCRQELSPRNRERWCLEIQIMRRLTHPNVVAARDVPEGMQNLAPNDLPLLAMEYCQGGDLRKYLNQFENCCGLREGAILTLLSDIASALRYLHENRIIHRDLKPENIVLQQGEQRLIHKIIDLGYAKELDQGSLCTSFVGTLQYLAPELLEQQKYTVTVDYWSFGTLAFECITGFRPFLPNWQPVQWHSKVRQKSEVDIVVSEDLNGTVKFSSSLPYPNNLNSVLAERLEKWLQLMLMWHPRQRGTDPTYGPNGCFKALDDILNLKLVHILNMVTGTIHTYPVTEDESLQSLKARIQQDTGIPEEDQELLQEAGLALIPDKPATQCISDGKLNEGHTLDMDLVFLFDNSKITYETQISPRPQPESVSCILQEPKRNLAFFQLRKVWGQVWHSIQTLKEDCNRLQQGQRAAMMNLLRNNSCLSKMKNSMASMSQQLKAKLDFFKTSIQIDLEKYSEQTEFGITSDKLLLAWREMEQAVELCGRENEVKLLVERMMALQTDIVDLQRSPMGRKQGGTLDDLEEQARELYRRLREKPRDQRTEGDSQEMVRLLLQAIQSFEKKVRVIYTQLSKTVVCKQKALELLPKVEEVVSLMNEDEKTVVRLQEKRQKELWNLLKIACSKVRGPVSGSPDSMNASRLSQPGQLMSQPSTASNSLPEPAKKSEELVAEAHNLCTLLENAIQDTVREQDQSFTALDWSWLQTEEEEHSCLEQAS

[14] = molecular target: Histamine H4 receptor (Homo sapiens) (UniProt Q9H3N8); details: Compound concentration 10.0 uM
Histamine H4 receptor (Homo sapiens), sequence (Q9H3N8 whole entry): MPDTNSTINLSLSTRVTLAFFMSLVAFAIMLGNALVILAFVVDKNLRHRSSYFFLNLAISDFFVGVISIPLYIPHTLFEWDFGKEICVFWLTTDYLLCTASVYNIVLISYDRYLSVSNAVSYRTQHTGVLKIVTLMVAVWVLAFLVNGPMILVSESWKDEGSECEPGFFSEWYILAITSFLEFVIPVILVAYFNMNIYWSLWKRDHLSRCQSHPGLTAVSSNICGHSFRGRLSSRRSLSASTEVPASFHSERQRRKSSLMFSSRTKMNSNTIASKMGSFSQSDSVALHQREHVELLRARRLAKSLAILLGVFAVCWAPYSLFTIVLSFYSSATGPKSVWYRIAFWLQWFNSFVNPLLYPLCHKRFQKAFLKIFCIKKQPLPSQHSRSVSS

[15] = molecular target: Muscarinic acetylcholine receptor M1 (Homo sapiens) (UniProt P11229); details: Compound concentration 10.0 uM
[16] = molecular target: Ribosomal protein S6 kinase alpha-4 (Homo sapiens) (UniProt O75676); details: Compound concentration 1000.0 nM
[17] = molecular target: Leukocyte tyrosine kinase receptor (Homo sapiens) (UniProt P29376); details: Compound concentration 1000.0 nM
Leukocyte tyrosine kinase receptor (Homo sapiens), sequence (P29376 whole entry): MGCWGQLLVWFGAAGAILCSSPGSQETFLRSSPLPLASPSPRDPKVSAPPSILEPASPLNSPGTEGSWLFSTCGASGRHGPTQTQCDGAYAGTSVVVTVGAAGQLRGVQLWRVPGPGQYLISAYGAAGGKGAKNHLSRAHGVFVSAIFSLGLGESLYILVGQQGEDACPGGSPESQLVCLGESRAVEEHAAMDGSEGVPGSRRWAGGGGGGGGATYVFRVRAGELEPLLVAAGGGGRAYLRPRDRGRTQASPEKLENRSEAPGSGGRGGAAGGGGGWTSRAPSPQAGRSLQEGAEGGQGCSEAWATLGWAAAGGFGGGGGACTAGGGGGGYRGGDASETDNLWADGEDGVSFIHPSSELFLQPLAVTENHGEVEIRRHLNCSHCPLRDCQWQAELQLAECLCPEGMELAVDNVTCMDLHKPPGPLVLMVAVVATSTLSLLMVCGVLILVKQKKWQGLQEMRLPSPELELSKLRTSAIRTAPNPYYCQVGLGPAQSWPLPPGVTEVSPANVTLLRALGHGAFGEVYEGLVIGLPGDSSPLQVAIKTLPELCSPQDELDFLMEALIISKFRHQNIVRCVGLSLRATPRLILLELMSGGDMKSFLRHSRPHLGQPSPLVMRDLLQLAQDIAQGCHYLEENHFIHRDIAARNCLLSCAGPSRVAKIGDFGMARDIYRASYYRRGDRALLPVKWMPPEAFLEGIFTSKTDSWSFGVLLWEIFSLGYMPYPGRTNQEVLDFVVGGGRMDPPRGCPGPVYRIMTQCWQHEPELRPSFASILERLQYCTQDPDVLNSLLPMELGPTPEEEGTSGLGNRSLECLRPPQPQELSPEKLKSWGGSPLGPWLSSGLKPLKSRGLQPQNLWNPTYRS

[18] = molecular target: 5'-AMP-activated protein kinase catalytic subunit alpha-2 (Homo sapiens) (UniProt P54646); details: Compound concentration 1000.0 nM
[19] = molecular target: Insulin-like growth factor 1 receptor (Homo sapiens) (UniProt P08069); details: Compound concentration 1000.0 nM
[20] = molecular target: Phosphorylase b kinase regulatory subunit alpha, liver isoform (Homo sapiens) (UniProt P46019); details: Compound concentration 1000.0 nM
[21] = molecular target: Cyclin-dependent kinase 14 (Homo sapiens) (UniProt O94921); details: Compound concentration 1000.0 nM
[22] = molecular target: Dual specificity testis-specific protein kinase 1 (Homo sapiens) (UniProt Q15569); details: Compound concentration 1000.0 nM
[23] = molecular target: Mitogen-activated protein kinase 11 (Homo sapiens) (UniProt Q15759); details: Compound concentration 1000.0 nM
[24] = molecular target: Muscle, skeletal receptor tyrosine-protein kinase (Homo sapiens) (UniProt O15146); details: Compound concentration 1000.0 nM
Muscle, skeletal receptor tyrosine-protein kinase (Homo sapiens), sequence (O15146 whole entry): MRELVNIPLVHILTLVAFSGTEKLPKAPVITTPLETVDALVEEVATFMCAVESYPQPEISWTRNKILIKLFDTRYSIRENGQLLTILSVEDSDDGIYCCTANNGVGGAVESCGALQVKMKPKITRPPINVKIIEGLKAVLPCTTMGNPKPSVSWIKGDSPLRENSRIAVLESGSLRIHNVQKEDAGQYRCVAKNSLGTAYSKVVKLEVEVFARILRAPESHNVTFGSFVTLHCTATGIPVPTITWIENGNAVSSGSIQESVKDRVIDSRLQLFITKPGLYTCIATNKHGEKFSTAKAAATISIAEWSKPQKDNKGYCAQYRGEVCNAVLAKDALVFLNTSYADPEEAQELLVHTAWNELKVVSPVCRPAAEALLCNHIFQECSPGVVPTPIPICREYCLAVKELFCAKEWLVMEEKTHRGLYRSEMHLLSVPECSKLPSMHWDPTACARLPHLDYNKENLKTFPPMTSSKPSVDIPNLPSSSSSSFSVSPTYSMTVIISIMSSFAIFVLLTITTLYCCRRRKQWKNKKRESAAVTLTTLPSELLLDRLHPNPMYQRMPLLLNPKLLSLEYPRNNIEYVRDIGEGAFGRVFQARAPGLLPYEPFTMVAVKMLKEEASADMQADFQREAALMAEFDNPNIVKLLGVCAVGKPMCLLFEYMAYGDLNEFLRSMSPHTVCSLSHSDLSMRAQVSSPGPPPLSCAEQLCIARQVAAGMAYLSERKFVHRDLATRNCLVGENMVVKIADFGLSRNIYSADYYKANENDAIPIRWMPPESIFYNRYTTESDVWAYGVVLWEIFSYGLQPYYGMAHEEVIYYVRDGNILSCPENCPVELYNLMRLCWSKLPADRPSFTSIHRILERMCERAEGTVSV

[25] = molecular target: Insulin receptor-related protein (Homo sapiens) (UniProt P14616); details: Compound concentration 1000.0 nM
[26] = molecular target: Activin receptor type-1-like (Homo sapiens) (UniProt P37023); details: Compound concentration 1000.0 nM
[27] = molecular target: Glycogen synthase kinase-3 alpha (Homo sapiens) (UniProt P49840); details: Compound concentration 1000.0 nM
Glycogen synthase kinase-3 alpha (Homo sapiens), sequence (P49840 2-483 limits assumed): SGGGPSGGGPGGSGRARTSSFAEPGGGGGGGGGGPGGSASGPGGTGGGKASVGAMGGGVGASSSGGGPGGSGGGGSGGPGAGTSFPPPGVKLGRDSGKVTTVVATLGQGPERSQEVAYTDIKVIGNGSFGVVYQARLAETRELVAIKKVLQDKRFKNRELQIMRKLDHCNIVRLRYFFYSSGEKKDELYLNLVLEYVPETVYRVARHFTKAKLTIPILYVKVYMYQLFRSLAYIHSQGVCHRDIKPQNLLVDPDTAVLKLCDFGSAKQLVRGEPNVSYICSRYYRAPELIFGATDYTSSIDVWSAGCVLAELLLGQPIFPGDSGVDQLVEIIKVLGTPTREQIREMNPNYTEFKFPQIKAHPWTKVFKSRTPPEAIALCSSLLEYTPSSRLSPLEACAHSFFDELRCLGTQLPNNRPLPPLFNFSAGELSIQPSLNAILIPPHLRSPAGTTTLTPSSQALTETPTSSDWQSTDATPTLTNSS

[28] = molecular target: LIM domain kinase 1 (Homo sapiens) (UniProt P53667); details: Compound concentration 1000.0 nM
[29] = molecular target: Mitogen-activated protein kinase 4 (Homo sapiens) (UniProt P31152); details: Compound concentration 1000.0 nM
[30] = molecular target: Serine/threonine-protein kinase PAK 2 (Homo sapiens) (UniProt Q13177); details: Compound concentration 1000.0 nM
[31] = molecular target: Serine/threonine-protein kinase WNK4 (Homo sapiens) (UniProt Q96J92); details: Compound concentration 1000.0 nM
[32] = molecular target: Insulin receptor (Homo sapiens) (UniProt P06213); details: Compound concentration 1000.0 nM
[33] = molecular target: Protein kinase C delta type (Homo sapiens) (UniProt Q05655); details: Compound concentration 1000.0 nM
Protein kinase C delta type (Homo sapiens), sequence (Q05655 whole entry, looked up): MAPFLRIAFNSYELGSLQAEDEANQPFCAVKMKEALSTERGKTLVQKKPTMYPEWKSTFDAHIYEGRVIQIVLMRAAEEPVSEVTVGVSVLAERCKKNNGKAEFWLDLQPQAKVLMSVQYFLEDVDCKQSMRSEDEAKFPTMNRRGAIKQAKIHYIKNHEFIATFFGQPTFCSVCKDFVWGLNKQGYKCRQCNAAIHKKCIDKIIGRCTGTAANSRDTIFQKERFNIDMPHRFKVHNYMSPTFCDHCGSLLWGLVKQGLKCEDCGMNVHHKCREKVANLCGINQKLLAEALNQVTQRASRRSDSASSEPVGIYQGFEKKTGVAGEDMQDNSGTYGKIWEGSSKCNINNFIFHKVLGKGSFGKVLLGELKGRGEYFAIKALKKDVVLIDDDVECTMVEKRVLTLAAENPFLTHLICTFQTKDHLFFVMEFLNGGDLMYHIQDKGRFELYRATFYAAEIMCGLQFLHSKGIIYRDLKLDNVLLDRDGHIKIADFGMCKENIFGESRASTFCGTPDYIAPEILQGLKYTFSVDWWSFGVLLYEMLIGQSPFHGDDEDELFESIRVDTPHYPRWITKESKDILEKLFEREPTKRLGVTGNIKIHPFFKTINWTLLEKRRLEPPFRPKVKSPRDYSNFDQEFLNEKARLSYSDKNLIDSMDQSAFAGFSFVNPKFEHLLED

[34] = molecular target: Dual specificity tyrosine-phosphorylation-regulated kinase 2 (Homo sapiens) (UniProt Q92630); details: Compound concentration 1000.0 nM
[35] = molecular target: D(1B) dopamine receptor (Homo sapiens) (UniProt P21918); details: Compound concentration 10.0 uM
[36] = molecular target: Phosphatidylinositol 5-phosphate 4-kinase type-2 gamma (Homo sapiens) (UniProt Q8TBX8); details: Compound concentration 1000.0 nM
Phosphatidylinositol 5-phosphate 4-kinase type-2 gamma (Homo sapiens), sequence (Q8TBX8 whole entry): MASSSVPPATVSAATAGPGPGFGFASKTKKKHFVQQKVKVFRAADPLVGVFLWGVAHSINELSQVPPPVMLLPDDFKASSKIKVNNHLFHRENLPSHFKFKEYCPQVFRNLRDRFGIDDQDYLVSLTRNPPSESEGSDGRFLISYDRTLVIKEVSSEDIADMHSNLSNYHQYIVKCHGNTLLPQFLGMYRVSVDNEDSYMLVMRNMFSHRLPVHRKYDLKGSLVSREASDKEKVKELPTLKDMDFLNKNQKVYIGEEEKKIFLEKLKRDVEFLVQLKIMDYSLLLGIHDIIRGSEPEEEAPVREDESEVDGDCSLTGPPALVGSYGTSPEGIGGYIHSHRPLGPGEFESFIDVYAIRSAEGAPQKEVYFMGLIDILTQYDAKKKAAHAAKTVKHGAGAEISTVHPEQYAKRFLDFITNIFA

[37] = test system: Mast/stem cell growth factor receptor Kit (Homo sapiens), P10721 [V559D,V654A]; details: Compound concentration 1000.0 nM
[38] = molecular target: Epidermal growth factor receptor (Homo sapiens) (UniProt P00533); details: Compound concentration 1000.0 nM
[39] = molecular target: Serine/threonine-protein kinase MRCK alpha (Homo sapiens) (UniProt Q5VT25); details: Compound concentration 1000.0 nM
[40] = molecular target: 5-hydroxytryptamine receptor 1A (Homo sapiens) (UniProt P08908); details: Compound concentration 10.0 uM
[41] = molecular target: Wee1-like protein kinase 2 (Homo sapiens) (UniProt P0C1S8); details: Compound concentration 1000.0 nM
[42] = molecular target: Sodium-dependent noradrenaline transporter (Homo sapiens) (UniProt P23975); details: Compound concentration 10.0 uM
[43] = molecular target: Kappa-type opioid receptor (Homo sapiens) (UniProt P41145); details: Compound concentration 10.0 uM
[44] = molecular target: Mitogen-activated protein kinase kinase kinase 3 (Homo sapiens) (UniProt Q99759); details: Compound concentration 1000.0 nM

Cc1nc(Cc2cccc(C(F)(F)F)c2)sc1-c1ccc(C(N)=O)nc1 [TP-024n] was tested, and the residual activity [1] was 100%, the inhibition [2] was 14.8% and the residual activity [3] was 78%. The residual activity [4] was 100%, the residual activity [5] was 91% and the residual activity [6] was 82%. It also gave a residual activity [7] of 100%, a residual activity [8] of 98% and a residual activity [9] of 98%. It also gave a residual activity [10] of 83%, an inhibition [11] of 2.42% and a residual activity [12] of 86%. It also gave a residual activity [13] of 72%, an inhibition [14] of 7.74% and an inhibition [15] of 10%. The residual activity [16] was 82%, the residual activity [17] was 100% and the residual activity [18] was 96%. For the same molecule, the residual activity [19] was 100%, the residual activity [20] was 100% and the residual activity [21] was 100%. The residual activity [22] was 88%, the residual activity [23] was 95% and the residual activity [24] was 89%. It also gave a residual activity [25] of 100%, a residual activity [26] of 99% and a residual activity [27] of 82%. For the same molecule, the residual activity [28] was 100%, the residual activity [29] was 100% and the residual activity [30] was 60%. For the same molecule, the residual activity [31] was 100%, the residual activity [32] was 95% and the residual activity [33] was 79%. For the same molecule, the residual activity [34] was 90%, the inhibition [35] was 13.8% and the residual activity [36] was 0.3%. It also gave a residual activity [37] of 83%, a residual activity [38] of 100% and a residual activity [39] of 81%. The inhibition [40] was -2.04%, the residual activity [41] was 100% and the inhibition [42] was -8.77%. It also gave an inhibition [43] of 3.47% and a residual activity [44] of 97%.
Cc1cc(-n2nc(Cc3cc(F)cc(C(F)(F)F)c3)nc2C)ccc1C(N)=O [TP-024] was tested, and the residual activity [1] was 100%, the inhibition [2] was 12.8% and the residual activity [3] was 97%. For the same molecule, the residual activity [4] was 100%, the residual activity [5] was 100% and the residual activity [6] was 79%. For the same molecule, the residual activity [7] was 100%, the residual activity [8] was 100% and the residual activity [9] was 88%. For the same molecule, the residual activity [10] was 77%, the inhibition [11] was 6.25% and the residual activity [12] was 100%. It also gave a residual activity [13] of 92%, an inhibition [14] of 1.73% and an inhibition [15] of -7.57%. For the same molecule, the residual activity [16] was 95%, the residual activity [17] was 100% and the residual activity [18] was 100%. It also gave a residual activity [19] of 98%, a residual activity [20] of 100% and a residual activity [21] of 100%. The residual activity [22] was 100%, the residual activity [23] was 90% and the residual activity [24] was 100%. For the same molecule, the residual activity [25] was 100%, the residual activity [26] was 100% and the residual activity [27] was 97%. The residual activity [28] was 100%, the residual activity [29] was 100% and the residual activity [30] was 75%. For the same molecule, the residual activity [31] was 100%, the residual activity [32] was 99% and the residual activity [33] was 88%. It also gave a residual activity [34] of 91%, an inhibition [35] of 14.3% and a residual activity [36] of 100%. For the same molecule, the residual activity [37] was 97%, the residual activity [38] was 100% and the residual activity [39] was 100%. For the same molecule, the inhibition [40] was -4.42%, the residual activity [41] was 100% and the inhibition [42] was -6.7%. The inhibition [43] was 16% and the residual activity [44] was 94%.
